Converted amounts (≈) assume the structure as drawn.

What all share (assay type): functional
For one experiment, the system named is Micrococcus luteus. The experiment can be described thus: Antimicrobial activity against Micrococcus luteus.
Experiment [1] deals with Trichophyton mentagrophytes. The experiment can be described thus: Antimicrobial activity against Trichophyton mentagrophytes.
The next experiment relates to Cryptococcus neoformans. The experiment can be described thus: Antimicrobial activity against Cryptococcus neoformans.

For orientation: MIC means the lowest concentration that inhibits growth of the organism. Low values mean greater potency, high ones weaker potency. Regarding `C[C@@H]1CC[C@@H]2[C@@H]1[C@H]1[C@@H](CC[C@]2(C)N)C1(C)C` [HALICHONADIN F], the figures for the MIC (with Micrococcus luteus; in experiment [1]; against Cryptococcus neoformans) were 4 µg/mL (≈ 18.1 µM), 16 µg/mL (≈ 72.3 µM) and 16 µg/mL (≈ 72.3 µM), respectively.

The record behind these values is ChEMBL document CHEMBL1157532, “Halichonadin F and the Cu(I) complex of halichonadin C from the sponge Halichondria sp” (2008).
